Reference: US11564911B2, “Small molecule dual-inhibitors of TRPV4 and TRPA1 for sanitizing and anesthetizing” (Duke University, priority 2016, dated 2023)
“And” between values parts separate entries of the source, which are not always exact repeats. Identical values can stand only once.

Key:
TRPV4 (rat) = target: T1, TRPV4 (rat) (Rattus norvegicus, UniProt Q9ERZ8); assay: Ca++ imaging in N2a cells with directed expression of TRPV4, activation with GSK101; format: cell-based; settings: for IC50: N2a cells, rat TRPV4, 5 nM GSK101, averaged peak ΔCa++, read-out: IC50, inhibition of TRPV4-mediated Ca++ influx; for inhibition of TRPV4-mediated Ca++ influx, first round screening: inhibitor 5 μM, 5 nM GSK101
T1 construct: expressed in transfected cells; host or cells: N2a (mouse neuroblastoma) cells
T1 sequence (Q9ERZ8 whole entry): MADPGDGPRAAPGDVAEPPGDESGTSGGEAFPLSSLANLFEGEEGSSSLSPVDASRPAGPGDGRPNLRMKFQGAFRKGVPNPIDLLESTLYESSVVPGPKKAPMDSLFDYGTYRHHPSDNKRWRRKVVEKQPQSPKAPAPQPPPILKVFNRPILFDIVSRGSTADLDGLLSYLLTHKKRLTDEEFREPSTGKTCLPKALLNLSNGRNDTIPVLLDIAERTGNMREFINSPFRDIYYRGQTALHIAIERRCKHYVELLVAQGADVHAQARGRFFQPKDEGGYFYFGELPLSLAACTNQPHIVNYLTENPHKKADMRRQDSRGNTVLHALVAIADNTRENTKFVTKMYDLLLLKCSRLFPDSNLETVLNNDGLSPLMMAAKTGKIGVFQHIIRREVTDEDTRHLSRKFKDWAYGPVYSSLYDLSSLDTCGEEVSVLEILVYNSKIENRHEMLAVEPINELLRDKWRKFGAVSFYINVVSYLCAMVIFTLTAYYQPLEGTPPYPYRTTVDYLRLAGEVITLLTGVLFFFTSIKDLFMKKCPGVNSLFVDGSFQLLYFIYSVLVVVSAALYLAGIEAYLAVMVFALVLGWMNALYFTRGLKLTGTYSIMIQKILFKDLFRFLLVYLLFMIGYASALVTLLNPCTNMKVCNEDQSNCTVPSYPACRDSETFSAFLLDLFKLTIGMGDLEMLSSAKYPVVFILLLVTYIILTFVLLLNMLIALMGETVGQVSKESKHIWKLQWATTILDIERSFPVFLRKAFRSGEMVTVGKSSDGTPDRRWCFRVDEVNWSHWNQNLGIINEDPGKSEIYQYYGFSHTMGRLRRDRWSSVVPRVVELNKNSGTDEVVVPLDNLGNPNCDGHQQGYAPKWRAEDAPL
Text: FIGS. 26A-26B: Assessment of compounds in N2a cells with directed expression of TRPV4. […] The number on each bar corresponds to average peak ΔCa++ concentrations in ≈100 cells. […] Plot generated from averaged peak ΔCa++ concentration of 75 cells per data-point.

[1] = system: mice, UVB-exposed hind paws; assay: UVB-overexposure evoked nocifensive behavior, topical compound; format: in vivo, mouse; settings: 0.5 mM in 40 μL
Method: Compounds were tested for their effect on nocifensive behavior (response to pain) following UVB overexposure. Behavioral tests were performed to evaluate the decrease in withdrawal thresholds in response to mechanical von Frey hair or thermal stimuli applied to hind paws. The Von-Frey apparatus (Ugo Basile) applied a mechanical stimulus with a flexible steel wire from underneath the hind paw. The force leading to withdrawal was determined. For the thermal stimuli test, paws were stimulated with heat from underneath applied by an infrared beam (Hargreave's test apparatus; Ugo Basile), and withdrawal latencies were recorded. The withdrawal thresholds were ascertained before and after UV exposure. Mice were exposed to UVB 3-5 days after the last application of tam/oil, using a Bio-Rad Gel Doc 2000 UV transilluminator (302 nm) for 5 min with an exposure of 600 mJ/cm^2. This represents 5-10 times the minimal erythema-inducing dose, in keeping with the rationale of inducing sunburn and studying sunburn-evoked pain.

human TRPA1 = target: T2, human TRPA1 (Homo sapiens, UniProt O75762); assay: Ca2+ transient in N2a cells transfected with human TRPA1, AITC activation; format: cell-based; settings: GSK205: doses below or equaling 25 μM
T2 construct: expressed in transfected cells; host or cells: N2a cells, co-transfected with eGFP plasmid
T2 sequence (O75762 whole entry): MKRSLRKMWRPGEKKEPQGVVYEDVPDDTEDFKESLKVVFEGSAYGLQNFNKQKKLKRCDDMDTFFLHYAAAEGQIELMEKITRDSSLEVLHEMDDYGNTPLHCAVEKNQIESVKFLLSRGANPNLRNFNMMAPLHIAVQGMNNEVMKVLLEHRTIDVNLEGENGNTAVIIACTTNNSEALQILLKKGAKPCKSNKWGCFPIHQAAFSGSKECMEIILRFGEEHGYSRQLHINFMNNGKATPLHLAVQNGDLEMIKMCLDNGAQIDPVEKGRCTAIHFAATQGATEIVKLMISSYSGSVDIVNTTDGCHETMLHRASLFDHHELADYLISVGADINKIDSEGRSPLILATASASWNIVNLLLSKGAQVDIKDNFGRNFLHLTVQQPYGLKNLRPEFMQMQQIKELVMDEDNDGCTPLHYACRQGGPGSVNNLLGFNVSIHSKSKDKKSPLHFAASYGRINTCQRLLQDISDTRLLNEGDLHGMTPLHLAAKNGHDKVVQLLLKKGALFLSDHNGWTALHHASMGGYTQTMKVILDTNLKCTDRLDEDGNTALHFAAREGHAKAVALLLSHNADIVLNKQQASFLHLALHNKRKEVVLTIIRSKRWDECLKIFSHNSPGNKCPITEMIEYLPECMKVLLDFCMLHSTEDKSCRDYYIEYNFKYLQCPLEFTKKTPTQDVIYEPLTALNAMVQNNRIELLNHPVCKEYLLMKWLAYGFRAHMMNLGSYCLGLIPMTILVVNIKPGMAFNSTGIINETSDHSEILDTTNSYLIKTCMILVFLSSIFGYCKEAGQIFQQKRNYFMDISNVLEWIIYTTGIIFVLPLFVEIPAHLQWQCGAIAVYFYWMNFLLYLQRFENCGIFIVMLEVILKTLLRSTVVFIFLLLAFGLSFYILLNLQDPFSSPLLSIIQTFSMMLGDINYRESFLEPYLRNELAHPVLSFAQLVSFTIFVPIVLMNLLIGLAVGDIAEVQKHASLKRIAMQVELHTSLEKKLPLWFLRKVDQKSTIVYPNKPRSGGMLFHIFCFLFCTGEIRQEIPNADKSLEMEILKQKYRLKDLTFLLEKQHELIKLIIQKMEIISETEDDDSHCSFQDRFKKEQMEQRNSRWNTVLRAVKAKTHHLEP
Method: Compounds were tested for their effect on TRPA1. N2a permanent cells were transfected with human TRPA1 cDNA, using a pcDNA3.1 expression plasmid. They were co-transfected with eGFP-expressing plasmid, or, for control, with eGFP plasmid only.
Cells were then pre-exposed to 5 μM of compounds 16-8 and 16-19 for 10 min.

TRPA1 (mouse) = target: T3, TRPA1 (mouse) (Mus musculus, UniProt Q8BLA8); assay: Ca++ imaging in N2a cells with directed expression of TRPA1, mustard oil activation; format: cell-based; settings: mouse TRPA1, 100 μM mustard oil, read-out: IC50, inhibition of TRPA1
T3 construct: expressed in transfected cells; host or cells: N2a cells, eGFP co-transfected
T3 sequence (Q8BLA8 whole entry): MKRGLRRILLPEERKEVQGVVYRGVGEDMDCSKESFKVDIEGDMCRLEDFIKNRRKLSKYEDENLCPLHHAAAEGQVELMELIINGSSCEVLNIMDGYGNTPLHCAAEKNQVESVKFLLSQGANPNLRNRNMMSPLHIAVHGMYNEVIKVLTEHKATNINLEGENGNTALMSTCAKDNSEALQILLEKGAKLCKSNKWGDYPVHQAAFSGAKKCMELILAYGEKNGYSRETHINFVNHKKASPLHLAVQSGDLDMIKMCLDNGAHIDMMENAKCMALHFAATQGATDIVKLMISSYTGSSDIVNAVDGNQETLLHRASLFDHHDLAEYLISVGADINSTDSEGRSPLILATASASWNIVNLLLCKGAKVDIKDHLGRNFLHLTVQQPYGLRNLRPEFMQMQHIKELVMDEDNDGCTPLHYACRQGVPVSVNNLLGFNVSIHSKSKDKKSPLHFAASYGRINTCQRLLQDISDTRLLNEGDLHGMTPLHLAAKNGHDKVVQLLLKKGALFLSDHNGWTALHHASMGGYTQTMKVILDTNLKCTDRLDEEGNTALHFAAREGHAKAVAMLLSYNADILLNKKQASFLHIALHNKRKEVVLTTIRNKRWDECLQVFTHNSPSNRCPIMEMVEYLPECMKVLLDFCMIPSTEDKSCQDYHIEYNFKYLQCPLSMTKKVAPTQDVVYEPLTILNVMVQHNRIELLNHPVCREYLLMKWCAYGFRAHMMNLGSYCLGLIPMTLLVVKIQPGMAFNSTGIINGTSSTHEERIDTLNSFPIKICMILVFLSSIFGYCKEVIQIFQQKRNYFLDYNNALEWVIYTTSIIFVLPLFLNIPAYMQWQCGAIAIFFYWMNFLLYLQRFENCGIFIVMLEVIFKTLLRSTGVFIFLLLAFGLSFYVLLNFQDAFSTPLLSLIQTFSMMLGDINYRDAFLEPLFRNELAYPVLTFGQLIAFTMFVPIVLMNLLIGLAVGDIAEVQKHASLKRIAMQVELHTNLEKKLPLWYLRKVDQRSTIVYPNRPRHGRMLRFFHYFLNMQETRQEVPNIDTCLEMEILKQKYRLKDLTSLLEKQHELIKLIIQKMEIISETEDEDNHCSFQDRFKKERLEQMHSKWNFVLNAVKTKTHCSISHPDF
Text: Mean±SEM is shown, ≥100 cells per condition. […] Plot generated from averaged peak ΔCa++ concentration of […] per data-point.

TRPV4 = TRPV4 (Homo sapiens, UniProt Q9HBA0); assay: TRPV4-mediated calcium influx in N2a cells with targeted expression of human TRPV4; format: cell-based; parameters: expressed in transfected cells; host or cells: N2a cells; settings: 2.5 μM inhibitor, pre-incubation 10 min, 10 nM GSK101
Chain of TRPV4 (Q9HBA0 whole entry): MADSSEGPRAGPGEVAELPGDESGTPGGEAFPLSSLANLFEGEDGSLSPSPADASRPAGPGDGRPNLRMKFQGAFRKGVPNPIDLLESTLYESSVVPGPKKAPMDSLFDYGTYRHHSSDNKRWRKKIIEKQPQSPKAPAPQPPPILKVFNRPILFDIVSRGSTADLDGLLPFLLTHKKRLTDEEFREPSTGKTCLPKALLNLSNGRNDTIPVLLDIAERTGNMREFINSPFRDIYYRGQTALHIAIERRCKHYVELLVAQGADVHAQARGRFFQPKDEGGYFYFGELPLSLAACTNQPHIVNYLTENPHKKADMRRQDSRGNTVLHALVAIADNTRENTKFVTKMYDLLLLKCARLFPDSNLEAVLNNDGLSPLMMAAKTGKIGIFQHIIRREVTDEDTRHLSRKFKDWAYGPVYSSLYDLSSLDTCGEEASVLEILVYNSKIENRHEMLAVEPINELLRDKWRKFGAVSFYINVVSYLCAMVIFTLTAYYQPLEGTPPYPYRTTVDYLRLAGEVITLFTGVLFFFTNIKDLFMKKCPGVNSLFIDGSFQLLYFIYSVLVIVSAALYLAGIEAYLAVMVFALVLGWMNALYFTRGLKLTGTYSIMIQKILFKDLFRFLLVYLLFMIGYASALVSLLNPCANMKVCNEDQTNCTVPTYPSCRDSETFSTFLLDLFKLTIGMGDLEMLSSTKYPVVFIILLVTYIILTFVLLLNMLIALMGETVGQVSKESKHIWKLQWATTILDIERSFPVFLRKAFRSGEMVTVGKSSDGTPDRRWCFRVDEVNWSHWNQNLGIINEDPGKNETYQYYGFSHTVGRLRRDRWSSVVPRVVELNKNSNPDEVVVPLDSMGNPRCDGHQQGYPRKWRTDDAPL

[2] = system: BL6 mice, whisker-pad injection of formalin; assay: Formalin-evoked nocifensive behavior, compound pre-injected into the whiskerpad; format: in vivo, mouse; settings: 0.5 mM/10 μL pre-injected into whiskerpad 15 min before formalin
Method: Compounds were tested for their effect in reducing pain using an in vivo pain model in mice. For mouse formalin-evoked irritant behavior measurements, mice were well-fed, well-rested, and tested at the same time of day, at the same time-point of their circadian rhythm. They were allowed to acclimate to a plexiglas chamber for at least 30 min before testing, and received 10 μL subcutaneous injection of 4% of formalin (diluted from an aqueous solution of commercial 37% formaldehyde with normal saline (NS)) through a 30-gauge needle into the right whiskerpad, as further detailed in Luccarini et al. (J. Pain, 2006, 7, 908-914). Normal saline was used as control injection. After injection, mice were immediately placed back into the chamber and the rubbing behavior was recorded by a private consumer-type video-camera for a 45 min observation period. The recording time was divided into 9 blocks of 5 min, and a nociceptive score was determined per block by measuring the time that the animals spent rubbing the injected area predominantly with the ipsilateral fore-paw and rarely with hind-paw. This rubbing behavior with fore-paw is evoked by pain, which is distinct from itch behavior. Behavioral analysis was conducted by observers blinded to treatment.
To investigate the effects of the specific compounds GSK205, 16-8, and 16-19 on formalin-induced nociceptive behavior, mice received a single subcutaneous injection of the compounds into the whiskerpad (10 μL, dissolved in 4% DMSO) 15 min before formalin injection. Control animals received the same volume of NS, 4% DMSO.

human TRPV2 = target: T4, human TRPV2 (Homo sapiens, UniProt Q9Y5S1); assay: Ca2+ signal in N2a cells transfected with human TRPV2 (hypotonicity); format: cell-based; settings: hypotonicity 260 mosmol/L
T4 construct: expressed in transfected cells; host or cells: N2a cells
T4 sequence (Q9Y5S1 whole entry): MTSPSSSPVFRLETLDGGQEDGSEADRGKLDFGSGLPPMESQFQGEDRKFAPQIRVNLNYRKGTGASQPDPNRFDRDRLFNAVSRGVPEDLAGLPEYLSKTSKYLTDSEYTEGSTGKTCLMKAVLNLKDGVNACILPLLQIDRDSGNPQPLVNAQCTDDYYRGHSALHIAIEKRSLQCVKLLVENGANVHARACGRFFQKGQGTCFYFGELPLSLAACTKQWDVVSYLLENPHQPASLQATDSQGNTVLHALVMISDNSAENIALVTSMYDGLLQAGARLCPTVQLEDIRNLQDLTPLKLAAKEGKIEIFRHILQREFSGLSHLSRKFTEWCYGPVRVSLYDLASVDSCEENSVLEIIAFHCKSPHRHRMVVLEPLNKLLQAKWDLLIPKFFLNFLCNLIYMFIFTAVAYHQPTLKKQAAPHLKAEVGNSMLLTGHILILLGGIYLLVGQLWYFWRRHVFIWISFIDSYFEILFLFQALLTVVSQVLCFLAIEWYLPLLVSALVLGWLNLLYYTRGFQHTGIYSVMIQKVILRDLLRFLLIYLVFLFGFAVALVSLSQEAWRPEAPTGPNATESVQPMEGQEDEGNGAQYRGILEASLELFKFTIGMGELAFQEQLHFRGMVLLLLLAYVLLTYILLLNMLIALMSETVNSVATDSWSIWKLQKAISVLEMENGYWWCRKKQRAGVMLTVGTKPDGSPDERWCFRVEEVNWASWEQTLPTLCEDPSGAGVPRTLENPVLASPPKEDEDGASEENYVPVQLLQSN
Method: Compounds were tested for their effect on TRPV1, TRPV2, and TRPV3. Methods were similar to those described in Example 15. Briefly, N2a cells were transfected with human TRPV1, TRPV2, or TRPV3. eGFP-transfection was used as control. For specific stimulation of TRPV1, 5 μM capsaicin was used. For stimulation of TRPV2, hypotonicity (260 mosmol/L) was used, based on previous reports of TRPV2 being osmotically responsive. N2a cells were not responsive to hypotonicity, and neither were control-transfected cells. For TRPV3-expressing cells, camphor (20% of a commercially available stock solution) was used. […] Stimulation and control protocols were applied as for TRPA1-expressing N2a cells as detailed above in Example 15.

[3] = Assessment of hepatic, renal and cardiac function in treated mice; format: in vivo, mouse; settings: 10 mg/kg i.p., vs vehicle; for heart rate (EKG): over 1 h, at the 6 h time-point
Method: Mice were treated i.p. with compounds 16-8 and 16-19 (10 mg/kg). Hepatic and renal integrity were analyzed by alanine amino-transferase- and creatinine assays (Sigma), both relying on measurement of absorbance at λ=570 nm in 96-well micro-titerplates. 8 technical replicates per animal were performed.
For heart rate assessment in mice treated with 16-8 and 16-19, animals were fitted with two electrodes, one to the ear, via clip, one to the rib-cage, using firm adhesive. Heart rate was monitored and analyzed using axoscope and clampfit 9.2 software (Molecular Devices)

| Compound | IC50 (TRPV4 (rat)) | response to pain following UVB exposure [1] | inhibitory activity against human TRPA1 (human TRPA1) | IC50 (TRPA1 (mouse)) | inhibition of TRPV4-mediated calcium influx (peak calcium concentration) (TRPV4) | nocifensive behavior, in particular second phase [2] | effect on Ca2+ transience, TRPV2 (human TRPV2) | inhibition of TRPV4-mediated Ca++ influx, first round screening (TRPV4 (rat)) | heart rate (EKG) [3] | alanine-amino-transferase (ALT) [3] | serum creatinin [3] | increased potency versus parental compound GSK205 (TRPV4 (rat); from IC50 values, rat TRPV4 in N2a cells) |
| --- | --- | --- | --- | --- | --- | --- | --- | --- | --- | --- | --- | --- |
| CN(CCc1ccc(Nc2nc(-c3cccnc3)cs2)cc1)Cc1ccccc1 [GSK205] | 4190 nM | as effective as vehicle | did not inhibit TRPA1 activity | 5560 ± 400 nM | very low potency | lack of effect | – | – | – | – | – | – |
| CN(CCc1ccc(Nc2nc(-c3ccccc3)cs2)cc1)Cc1ccccc1 [Compound 16-8] | 450 nM | especially effective | showed inhibitory activity | 410 nM and 430 nM | most potent | significant attenuation | not affected | virtually eliminated Ca++ influx | did not detect differences and changes in heart rate | not significantly elevated | not significantly elevated | – |
| CCN(CCc1ccc(Nc2nc(-c3ccccc3)cs2)cc1)Cc1ccccc1 [Compound 16-19] | 590 nM and 810 nM | – | showed inhibitory activity | 430 nM and 410 nM | did not show enhanced inhibition over 16-8 | significant attenuation | not affected | virtually eliminated Ca++ influx | did not detect differences and changes in heart rate | not significantly elevated | not significantly elevated | ~8 fold |
